{
  "source": "patent US6203822A",
  "about": "“Gallium-containing compounds for the treatment of infections caused by intracellular pathogens and pathogens causing chronic pulmonary infection” (priority 1996, dated 2001)",
  "test_system": "MDR-TB patient isolate (resistant to isoniazid and rifampin)",
  "type": "cell-based, M. tuberculosis",
  "conditions": "gallium about 0 to about 500 μM",
  "data": [
    {"smiles": "O=[N+]([O-])[O-].O=[N+]([O-])[O-].O=[N+]([O-])[O-].[Ga+3]", "note": "[gallium nitrate]", "values": [
      {"measurement": "activity against MDR M. tuberculosis strain", "result": "retained full activity"}
    ]}
  ]
}
